Source: PubChem BioAssay (NCI)
Values joined by “and” are separate entries in the source; they are usually repeats but may differ in a detail not shown here. Identical values can stand only once.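 Following 48 hours of exposure in 96-well plates, responses at five concentrations were used to interpolate endpoints linearly. GI50 marks 50% less growth. Definition used: TGI = concentration required for complete inhibition of growth.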

Legend:
Test in all cases: inhibition of tumour cell growth, NCI panel, 48 h
[1] = test system: LXFL 529 NSCLC
[2] = test system: A498 renal
[3] = test system: KM20L2 colon
[4] = test system: ACHN renal
[5] = test system: CAKI-1 renal
[6] = test system: 786-0 renal
[7] = test system: OVCAR-8 ovarian
[8] = test system: HOP-92 NSCLC
[9] = test system: MDA-MB-435
[10] = test system: SR leukemia

Structure (SMILES)	TGI [1]	TGI [2]	TGI [3]	TGI [4]	TGI [5]	TGI [6]	TGI [7]	TGI [8]	GI50 [2]	GI50 [9]	TGI [9]	GI50 [10]	TGI [10]	GI50 [4]	GI50 [5]	GI50 [6]	GI50 [7]	GI50 [8]	GI50 [1]	GI50 [3]
CC(=O)O[C@@H]1CC(C)C2CC2C2=C(C(O)OC2O)[C@@H]1C(C)CCC=C(C)C (stereo partly specified)	81.9 µM	> 100 µM	39.9 µM	90.5 µM	58.3 µM	40.3 µM	73 µM	35.5 µM												
O=C(c1cc(-c2cc3c(cc2C(=O)N2Cc4ccccc4C[C@H]2CN2CCOCC2)OCO3)n2c1CCCC2)N(c1ccccc1)c1ccc(O)cc1		15.3 µM		> 100 µM	> 100 µM	> 100 µM	> 100 µM	15 µM	2.71 µM	8.55 µM	98.9 µM	3.09 µM	> 100 µM	9.36 µM	3.56 µM	45.9 µM	10.6 µM	2.72 µM		
CCCCC(=O)[O-].N.N.N.N.N.[Co+3].[O-][Cl+3]([O-])([O-])[O-]	> 100 µM	> 100 µM	> 100 µM	> 100 µM		> 100 µM	> 100 µM	> 100 µM	> 100 µM					> 100 µM		> 100 µM	> 100 µM	> 100 µM	> 100 µM	> 100 µM
CN1CCN(Cc2ccc(NC(=O)c3[nH]ncc3Nc3ncnc4c3CCC4)cc2)CC1		4.45 µM		9.09 µM	11.1 µM	11 µM	13.5 µM	8.33 µM	1.6 µM	1.8 µM	12.3 µM	0.438 µM	3.05 µM	1.32 µM	2.73 µM	2.24 µM	3.27 µM	4.43 µM		
Cn1c2ccccc2c2nnc(N/N=C/c3ccccn3)nc21		5.05 µM		> 21.4 µM	1.19 µM	0.758 µM	> 84.2 µM	> 59.1 µM	0.396 µM	0.459 µM	> 54.6 µM	0.23 µM	> 100 µM	0.35 µM	0.264 µM	0.256 µM	0.426 µM	0.413 µM		
O=C1C(Cl)=C(N2CCOCC2)C(=O)c2ccccc21		24.3 µM		3.48 µM	3.49 µM	31.2 µM	3 µM	3 µM	11.2 µM	1.95 µM	3.72 µM	2.77 µM	7.87 µM	1.99 µM	1.88 µM	16.6 µM	1.6 µM	1.52 µM		
O=C(Nc1ccc(Nc2ccncc2)cc1)c1ccc(Nc2ccnc3ccc([N+](=O)[O-])cc23)cc1		> 100 µM		> 100 µM	> 100 µM	> 100 µM	> 100 µM	> 100 µM	> 100 µM	> 100 µM	> 100 µM	7.53 µM	> 100 µM	> 100 µM	> 100 µM	> 100 µM	> 100 µM	> 100 µM		
Cc1c(Cl)cccc1NC(=O)c1sc2nc3c(cc2c1N)CCCCCC3		9.16 µM		> 50 µM		14.7 µM	> 50 µM	16.1 µM	0.202 µM	0.0761 µM	0.251 µM	0.101 µM	> 50 µM	0.465 µM		0.223 µM	0.286 µM	0.164 µM		
COc1ccc(C=NC23CC4CC(CC(C4)C2)C3)cc1		> 100 µM	> 100 µM	> 100 µM	> 100 µM	> 100 µM	> 100 µM						> 100 µM							
N#CSCC1CC(O)(c2ccccc2)C(c2ccccc2)C(c2ccc(F)cc2)O1 (stereo unspecified)		45.9 µM		11.4 µM	5.46 µM	9.08 µM	11 µM	7.88 µM	18.1 µM	1.99 µM	4.9 µM	0.344 µM	3.02 µM	3.42 µM	2.39 µM	3.05 µM	3.18 µM	2.13 µM		
Cc1cc(-c2nc3ccc(O)cc3s2)ccc1N		> 100 µM		> 100 µM	> 100 µM	> 100 µM	> 100 µM	> 100 µM	41.3 µM	88.3 µM	> 100 µM	22 µM	> 100 µM	53.9 µM		29.2 µM	> 100 µM	> 100 µM		
CCOC(=O)C(Cc1c[nH]c2cc([N+](=O)[O-])ccc12)(NC(C)=O)C(=O)OCC		203 µM		> 1000 µM	> 1000 µM	> 754 µM	> 1000 µM	141 µM	55.3 µM	> 649 µM	> 1000 µM	26.3 µM	446 µM	178 µM	190 µM	175 µM	30.3 µM and 104 µM	47.5 µM		
CO/N=C1/NC(=O)/C(=C/c2ccc3ncccc3c2)S1		11.5 µM		> 25 µM	> 25 µM	> 25 µM	> 25 µM	> 25 µM	3.41 µM	15 µM	> 25 µM	14.7 µM	> 25 µM	10.6 µM	8.49 µM	23.4 µM	> 22.6 µM	4.48 µM		
COc1cccc(/C=C/C(=O)c2cc3c(N)c(C(=O)Nc4cccc(Cl)c4C)sc3nc2C)c1		3.07 µM		1.95 µM	2.53 µM	1.83 µM	> 50 µM	3.16 µM	0.897 µM	0.345 µM	1.32 µM	0.217 µM	> 12.3 µM	0.811 µM	0.884 µM	0.823 µM	1.49 µM	1.04 µM		
NC(=NC1CCCCCC1)c1ccc(N2CCN(c3ccc(C(N)=NC4CCCCCC4)cc3)CC2)cc1				> 50 µM	> 50 µM	43.9 µM	> 50 µM	28.7 µM		7.85 µM	26.1 µM	6.64 µM	19.8 µM	46.4 µM	> 50 µM	10.7 µM	9 µM	8.29 µM		
COc1ccc(C2=C(c3cn(C)c4ccccc34)C(=O)NC2=O)cc1OC		8.95 µM		> 25 µM	> 25 µM	> 25 µM	> 25 µM	> 25 µM	3.43 µM	1.1 µM	> 25 µM	2.48 µM	> 25 µM	6.35 µM	5.78 µM	8.28 µM	15.6 µM	> 12.4 µM		
COc1cc(-c2cn(-c3ccc(Cl)cc3)c(=O)[nH]2)cc(OC)c1OC		> 100 µM		> 100 µM	> 100 µM	> 100 µM	> 100 µM	> 100 µM	> 100 µM	> 100 µM	> 100 µM	0.034 µM	39.1 µM	> 100 µM	> 100 µM	> 100 µM	> 100 µM	> 100 µM		

Structure (SMILES)	TGI [1]	TGI [2]	TGI [3]	TGI [4]	TGI [5]	TGI [6]	TGI [7]	TGI [8]	GI50 [2]	GI50 [9]	TGI [9]	GI50 [10]	TGI [10]	GI50 [4]	GI50 [5]	GI50 [6]	GI50 [7]	GI50 [8]	GI50 [1]	GI50 [3]
COc1ccc(/C=C(\C#N)c2cc(OC)c3c(c2)OCO3)cc1		0.193 µM		67.7 µM	90.8 µM	17.2 µM	34.5 µM	52.2 µM	< 0.01 µM	< 0.01 µM		< 0.01 µM	> 100 µM	0.0449 µM	0.465 µM	< 0.0215 µM	0.026 µM	8.09 µM		
Cc1c(CN2CCC(Nc3ncnc4sc(CC(F)(F)F)cc34)CC2)ccc2c1cc(C#N)n2Cc1cn[nH]c1		79.4 µM and > 39.1 µM		19.5 µM and > 38 µM	22.1 µM and > 40.3 µM	21.9 µM	21.8 µM	25.1 µM and > 25.9 µM	7.55 µM	1.99 µM and 3.78 µM	6.15 µM	0.571 µM and 1.36 µM	3.68 µM and 5.19 µM	4.47 µM and 10.7 µM	4.43 µM	4.92 µM and 4.44 µM	5.07 µM and 6.1 µM	3.81 µM and 1.09 µM		
CN(C)CC#Cc1cccc(C(=O)c2cnn(-c3ccc(F)cc3)c2N)c1		> 25 µM		> 25 µM	> 25 µM	> 25 µM	> 25 µM	> 25 µM	> 21.3 µM	11.9 µM	> 25 µM	> 18.2 µM	> 25 µM	> 25 µM	> 25 µM	> 25 µM	> 25 µM	> 17.7 µM		
Cn1c(=O)c2[nH]c(COCc3nc4c([nH]3)c(=O)n(C)c(=O)n4C)nc2n(C)c1=O		> 100 µM		> 100 µM	> 100 µM	> 100 µM	> 100 µM	> 100 µM			> 100 µM		> 100 µM							
O[C@]12CCCC[C@H]1CCC2	> 100 µM	> 100 µM		> 100 µM	> 100 µM	> 100 µM	> 100 µM	> 100 µM												
CCN(CC)CCCC(C)Nc1cnc(C(=O)Nc2cc(F)cc3cccnc23)cn1 (stereo unspecified)		14.5 µM and 3.24 µM		9.61 µM and 1.96 µM	15.4 µM and 5.71 µM	22 µM and 2.7 µM	20.2 µM and 5.77 µM	14.5 µM and 2.62 µM	2.72 µM and 1.6 µM	3.4 µM and 1.45 µM	12.8 µM and 3.43 µM	2.66 µM and 1.6 µM		2.81 µM and 0.683 µM	2.89 µM and 2.05 µM	8.17 µM and 1.33 µM	7.03 µM and 1.29 µM	2.43 µM and 1.19 µM		
O=C(N/N=C/c1cc(Br)cc(Br)c1[O-])c1ccccc1O.O=C(N/N=C/c1cc(Br)cc(Br)c1[O-])c1ccccc1O.[Mn+2]		50.1 µM	21.3 µM	15.1 µM	11.9 µM	15.9 µM	14.3 µM	14.9 µM	12.8 µM							0.887 µM				
CCOc1cc2ncc(C#N)c(Nc3ccc(F)c(Cl)c3)c2cc1NC(=O)/C=C/CN(C)C		0.799 µM		1.8 µM	0.952 µM	2 µM	> 9.22 µM	> 4.39 µM	0.145 µM	0.323 µM	1.42 µM	0.414 µM	2.4 µM	0.0232 µM	0.0278 µM	0.339 µM	0.295 µM	0.254 µM		
Cn1c2ccc([N+](=O)[O-])cc2c(=O)c2c(O)cc(O)cc21		> 100 µM		> 100 µM	> 100 µM	47 µM	25.9 µM	96.3 µM			> 100 µM		> 100 µM							
Cc1nn2c(/C=C3/C(=O)Nc4ccc(Cl)cc43)c(-c3ccccc3)nc2s1		10.6 µM		14.4 µM	6.3 µM	5.8 µM	5.76 µM	3.06 µM	1.63 µM	3.24 µM	13.5 µM	3.5 µM	> 100 µM	2.96 µM	1.92 µM	2.37 µM	2.19 µM	0.58 µM		
Clc1cc(Cl)cc(N2N=C(c3cccc(Nc4ccncc4)c3)CC2c2ccc(Br)cc2)c1 (stereo unspecified)		2.3 µM		3.02 µM	2.91 µM	3.32 µM	4.87 µM	2.94 µM	1.08 µM	1.61 µM	3 µM	1.48 µM	3.68 µM	1.66 µM	1.54 µM	1.74 µM	2.16 µM	1.48 µM		
NC(=O)C1=C(c2ccccc2)c2ccccc2C1=O		60.8 µM		23.5 µM	30.4 µM	30.5 µM	31 µM	35.3 µM			65.8 µM		26.3 µM							
O=C(CNC(=O)c1cccc2ccccc12)Nc1ccccc1Oc1ccccc1		> 10 µM		> 10 µM	> 10 µM	> 10 µM	> 10 µM	> 10 µM	0.256 µM	0.0425 µM	0.313 µM	0.0825 µM	> 10 µM	0.833 µM	0.353 µM	0.449 µM	0.315 µM	2.22 µM		
C=C1C(=O)O[C@@H]2C[C@@H](C)[C@@H]3[C@@H](OC4OC(COC(C)=O)C(O)C(O)C4O)CC(=O)[C@@]3(C)C[C@H]12 (stereo partly specified)		30.1 µM		0.987 µM	1.01 µM	0.883 µM	3.7 µM	2.15 µM			6.03 µM		7.53 µM							
COc1ccc(C(=O)c2cc(OC)c(OC)c(OC)c2)cc1O		5.7 µM		> 100 µM	> 100 µM	> 100 µM	> 100 µM	> 100 µM	1.4 µM	< 0.01 µM		< 0.01 µM	> 100 µM	0.0433 µM	0.363 µM	0.914 µM	0.0427 µM	0.539 µM		
N#CC(C#N)=CN1CCN(C(=O)c2ccccc2)C1=S				43.6 µM	89.4 µM	> 100 µM	> 100 µM	> 100 µM		38.8 µM	> 100 µM	18.8 µM	79.9 µM	18.8 µM	28.7 µM	38.9 µM	77 µM	56.8 µM		
